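48-hour exposure; five concentrations; linearly interpolated endpoints. GI50 marks 50% less growth. TGI: total growth inhibition.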
What was measured:
Assay in all cases: inhibition of tumour cell growth, NCI panel, 48 h
SK-MEL-28 melanoma = system: SK-MEL-28 melanoma
MALME-3M melanoma = system: MALME-3M melanoma
HT29 colon = system: HT29 colon
HCC-2998 colon = system: HCC-2998 colon
NCI-H522 lung = system: NCI-H522 lung
HL-60(TB) leukemia = system: HL-60(TB) leukemia
SF-295 CNS = system: SF-295 CNS
PC-3 prostate = system: PC-3 prostate
ACHN renal = system: ACHN renal
IGROV1 ovarian = system: IGROV1 ovarian

| SMILES | GI50 (SK-MEL-28 melanoma) [µM] | TGI (SK-MEL-28 melanoma) [µM] | GI50 (MALME-3M melanoma) [µM] | TGI (MALME-3M melanoma) [µM] | GI50 (HT29 colon) [µM] | TGI (HT29 colon) [µM] | GI50 (HCC-2998 colon) [µM] | TGI (HCC-2998 colon) [µM] | GI50 (NCI-H522 lung) [µM] | TGI (NCI-H522 lung) [µM] | GI50 (HL-60(TB) leukemia) [µM] | TGI (HL-60(TB) leukemia) [µM] | GI50 (SF-295 CNS) [µM] | TGI (SF-295 CNS) [µM] | GI50 (PC-3 prostate) [µM] | TGI (PC-3 prostate) [µM] | GI50 (ACHN renal) [µM] | TGI (ACHN renal) [µM] | GI50 (IGROV1 ovarian) [µM] | TGI (IGROV1 ovarian) [µM] |
| --- | --- | --- | --- | --- | --- | --- | --- | --- | --- | --- | --- | --- | --- | --- | --- | --- | --- | --- | --- | --- |
| COc1cc(N=Nc2cc(Cc3ccc(N(C)C)cc3)c(N)cc2N(C)C)c2ncccc2c1 | 0.745 | 2.2 | 0.621 | 2.28 | 0.0607 | 2.4 | 1.16 | 2.66 | 0.398 | 2.23 | 0.267 | 1.36 | 0.618 | 2 | 0.293 | 3.03 | 0.233 | 1.69 | 0.364 | 1.57 |
| O=c1c(I)c[nH]cc1I | > 100 | > 100 | > 100 | > 100 | > 100 | > 100 | > 100 | > 100 | > 100 | > 100 | > 100 | > 100 | > 100 | > 100 | > 100 | > 100 | > 100 | > 100 | 98.3 | > 100 |
| C=C1C(=O)OC2CC(C)C(/C=C/C(C)=O)=CCC12 (stereo not given) |  | > 100 |  | 89.4 |  | > 100 |  | > 100 |  | > 100 |  | > 100 |  | > 100 |  | > 100 |  | > 100 |  | > 100 |
| COc1cc(-c2nc(-c3ccccc3)c(-c3ccccc3)[nH]2)cc(OC)c1O | 14.9 | 31.1 | 18.8 | 40.3 | 17.4 | 35.6 | 17.1 | 32.7 | 17.6 | 33.8 | 31.5 | > 100 | 17.1 | 45.5 | 17.9 | 50.2 | 14.2 | 33.1 | 26.9 | 61.2 |
| O=c1[nH]c2cc(Cl)ccc2nc1/C(=N\Nc1ccccc1)C(O)c1ccc2c(c1)OCO2 (stereo not given) |  | > 100 |  | > 100 |  | > 100 |  | > 100 |  | > 100 |  | > 100 |  | > 100 |  | > 100 |  | > 100 |  | > 100 |
| Cc1nc2c(C)ccc([N+](=O)[O-])c2c(NCCCN(C)C)c1C |  | > 54.8 |  | > 55.3 |  | > 70.8 |  | > 55.4 |  | > 100 |  | > 68.3 |  | > 100 |  | > 47.9 |  | > 100 |  | > 100 |
| Cc1cc(NC(=O)NCc2ccc(N3C(N)=NC(N)=NC3(C)C)cc2)ccc1S(=O)(=O)F | 17.7 | > 100 | 29 | 98.5 | 0.37 | > 100 | 1.96 | > 100 | 6.1 | > 100 | 0.716 | > 57.5 | 1.57 | > 100 | 0.0962 | 31 | 46.2 | > 100 | 0.388 | > 100 |
| CCCCNc1ncnc2c1cnn2-c1ccccc1 | 10.1 | > 100 | 6.18 | > 72.5 | 0.565 | 13.8 | 5.72 | 37.8 | 0.799 | 9.94 | 2.35 | 53 | 1.88 | 20.3 | 2.38 | 56.9 | 9.6 | > 100 | 2.22 | > 100 |
| O=S(=O)(c1ccccc1)N1CCCC(c2ccccc2)CC1 (stereo not given) |  | > 100 |  | > 100 |  | 42 |  | 61.3 |  | > 100 |  | 29.9 |  | > 100 |  | > 100 |  | > 100 |  | > 100 |
| CC(C)(C)N/N=C(/Cc1nc2c3c(ccc2[nH]c1=O)C(=O)c1ccccc1C3=O)C(=O)NC1=C(Cl)C(=O)c2ccccc2C1=O |  | > 100 |  | 37.8 |  | 30 |  | > 100 |  | > 100 |  | > 100 |  | > 100 |  | > 100 |  | > 100 |  | > 100 |
| CCSC[C@@H]1C[C@](O)(c2ccccc2)[C@@H](c2ccccc2)O1 | > 100 | > 100 | > 100 | > 100 | 69.6 | > 100 | > 100 | > 100 | 58.4 | > 100 | 9.84 | > 50.7 | 46.2 | > 100 | 56.7 | > 100 | > 88 | > 100 | 59.5 | > 100 |
| COc1cc2ncn(-c3cc(OCc4ccccc4C(F)(F)F)c(C(N)=O)s3)c2cc1OC | 1.5 | > 25 | 14.5 | > 25 | 0.0889 | > 25 | 0.276 | > 25 | 0.168 | 3.67 | 0.0361 | > 25 | 0.131 | 6.9 | 0.214 | > 25 | 2.79 | > 25 | 0.933 | > 25 |
| CCn1c(-c2nonc2N)nc2ccccc21 | > 25 | > 25 | > 25 | > 25 | > 25 | > 25 | > 25 | > 25 | > 25 | > 25 | > 25 | > 25 | > 25 | > 25 | > 25 | > 25 | > 25 | > 25 | > 25 | > 25 |
| O=[N+]([O-])c1ccccc1N=Nc1c(O)[nH]c2c(Cl)cccc12 |  | > 72.4 |  | > 35.2 |  | 99.4 |  | > 100 |  | 26.1 |  | > 100 |  | 31.6 |  | > 100 |  | > 45.8 |  | > 47.8 |

Reference: PubChem BioAssay (NCI)
